Laboratory results published in patent US8618137B2 (priority 2008, dated 2013).
Read-outs that look alike come from different tables or passages of the source. Marks after values point to notes of the source that are not given here.

Legend:
Type in all cases: in vivo
[1] = tested on: Phytophthora infestans (the causal agent of tomato late blight); details: sprayed 17 h after inoculation, 100 = 100% disease control, 0 = no control
[2] = tested on: Plasmopara viticola (the causal agent of grape downy mildew); assay: Test A: grape downy mildew, grape seedlings inoculated then sprayed with test suspension, visual disease rating; details: 100 = 100% disease control, 0 = no control relative to controls
Excerpt: General protocol for preparing test suspensions for Tests A-B2: The test compounds were first dissolved in acetone in an amount equal to 3% of the final volume and then suspended at the desired concentration (in ppm) in acetone and purified water (50/50 mix by volume) containing 250 ppm of the surfactant Trem® 014 (polyhydric alcohol esters). The resulting test suspensions were then used in Tests A-B2. Spraying a 200 ppm test suspension to the point of run-off on the test plants was the equivalent of a rate of 800 g/ha.
Grape seedlings were inoculated with a spore suspension of Plasmopara viticola (the causal agent of grape downy mildew) and incubated in a saturated atmosphere at 20° C. for 24 h. After a short drying period, the grape seedlings were sprayed with the test suspension to the point of run-off, then moved to a growth chamber at 20° C. for 5 days, and then back into a saturated atmosphere at 20° C. for 24 h. Upon removal, visual disease ratings were made.
Results for Tests A-B2 are given in Table A. In the Table, a rating of 100 indicates 100% disease control and a rating of 0 indicates no disease control (relative to the controls). All results are for 10 ppm except where followed by an “*” which indicates 40 ppm and “**” which indicates 200 ppm.

[3] = tested on: Phytophthora infestans (the causal agent of tomato late blight); details: sprayed the day before inoculation, 100 = 100% disease control, 0 = no control

| Structure (SMILES) | Test B2 rating (disease control) ([1]; test suspension 40 ppm (*)) | Test A rating (disease control) ([2]; test suspension 40 ppm (*)) | Test B1 rating (disease control) ([3]; test suspension 40 ppm (*)) | Test B2 rating (disease control) ([1]; test suspension 10 ppm) [%] | Test A rating (disease control) ([2]; test suspension 10 ppm) [%] | Test B1 rating (disease control) ([3]; test suspension 10 ppm) [%] |
| --- | --- | --- | --- | --- | --- | --- |
| CC(C)=NOCC(=O)N1CCC(c2nc(C(=O)N(C)[C@H](C)c3ccccc3)cs2)CC1 [compound 15] | 91* % | 99* % | 39* % |  |  |  |
| O=C(CON=CC(F)(F)F)N1CCC(c2nc(C3=NOC4(CCc5ccccc54)C3)cs2)CC1 (stereo not drawn) [compound 29] |  |  |  | 99 | 100 | 100 |
| CC(C)=NOCC(=O)N1CCC(c2nc(C3=NOC(c4ccccc4C#N)C3)cs2)CC1 (stereo not drawn) [compound 41] |  |  |  | 99 | 100 | 100 |
| CC(=NOCC(=O)N1CCC(c2nc(C3=NOC(c4ccccc4C#N)C3)cs2)CC1)C(F)(F)F (stereo not drawn) [compound 42] |  |  |  | 99 | 100 | 100 |
| CC(=NOCC(=O)N1CCC(c2nc(C3=NOC(n4c(=O)oc5ccccc54)C3)cs2)CC1)C(F)(F)F (stereo not drawn) [compound 43] |  |  |  | 99 | 100 | 100 |
| CC(=NOCC(=O)N1CCC(c2nc(C3=NOC(N4C(=O)c5ccccc5C4=O)C3)cs2)CC1)C(F)(F)F (stereo not drawn) [compound 44] |  |  |  | 99 | 100 | 100 |
| CC(C)=NOCC(=O)N1CCC(c2nc(C3=NOC(N4C(=O)c5ccccc5C4=O)C3)cs2)CC1 (stereo not drawn) [compound 45] |  |  |  | 99 | 96 | 95 |
| CC1=NN(CC(=O)N2CCC(c3nc(C4=NOC(c5c(F)cccc5F)C4)cs3)CC2)C(C)(C)C1 (stereo not drawn) [compound 46] | 81* % | 9* % | 90* % |  |  |  |
| CN1C(=O)c2ccccc2C12CC(c1csc(C3CCN(C(=O)CON=CC(F)(F)F)CC3)n1)=NO2 (stereo not drawn) [compound 47] |  |  |  | 99 | 100 | 100 |
| Cn1c(=O)n(C2CC(c3csc(C4CCN(C(=O)CON=CC(F)(F)F)CC4)n3)=NO2)c2ccccc21 (stereo not drawn) [compound 48] |  |  |  | 99 | 100 | 100 |
| CC(=NOCC(=O)N1CCC(c2nc(C3=NOC(n4c(=O)n(C)c5ccccc54)C3)cs2)CC1)C(F)(F)F (stereo not drawn) [compound 49] |  |  |  | 99 | 100 | 100 |
| CC(=NOCC(=O)N1CCC(c2nc(C3=NOC4(C3)c3ccccc3C(=O)N4C)cs2)CC1)C(F)(F)F (stereo not drawn) [compound 50] |  |  |  | 99 | 100 | 100 |
| N#CC(C#N)=NOCC(=O)N1CCC(c2nc(C3=NOC(c4c(F)cccc4F)C3)cs2)CC1 (stereo not drawn) [compound 51] |  |  |  | 99 | 99 | 100 |
